{
  "source": "ChEMBL document CHEMBL4321884",
  "about": "“Human Serum Albumin Binding in a Vial: A Novel UV-pH Titration Method To Assist Drug Design” (J Med Chem, 2020)",
  "key": {"Albumin [1]": {"biological_target": "T1, Albumin (Homo sapiens, UniProt P02768)", "T1 sequence (P02768 whole entry)": "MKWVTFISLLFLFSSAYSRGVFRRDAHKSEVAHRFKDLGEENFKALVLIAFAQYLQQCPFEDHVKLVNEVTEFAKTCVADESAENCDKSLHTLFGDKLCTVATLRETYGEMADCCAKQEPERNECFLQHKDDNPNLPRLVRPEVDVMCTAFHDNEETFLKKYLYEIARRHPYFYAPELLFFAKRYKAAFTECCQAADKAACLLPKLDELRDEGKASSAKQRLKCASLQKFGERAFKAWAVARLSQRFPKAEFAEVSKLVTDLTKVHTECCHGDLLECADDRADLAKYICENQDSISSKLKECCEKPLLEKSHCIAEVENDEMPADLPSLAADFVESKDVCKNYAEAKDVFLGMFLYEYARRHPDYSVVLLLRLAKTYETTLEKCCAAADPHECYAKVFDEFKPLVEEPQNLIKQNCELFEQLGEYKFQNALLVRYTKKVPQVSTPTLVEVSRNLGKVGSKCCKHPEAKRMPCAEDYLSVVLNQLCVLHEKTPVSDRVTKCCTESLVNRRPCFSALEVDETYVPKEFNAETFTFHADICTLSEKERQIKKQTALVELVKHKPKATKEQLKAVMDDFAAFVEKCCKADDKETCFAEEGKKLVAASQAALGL", "assay": "Protein binding in immobilized human serum albumin by HPLC analysis", "format": "ADME", "conditions": "read-out: PB (converted)"}, "[2]": {"assay": "Protein binding in plasma (unknown origin)", "format": "ADME, cell-free", "conditions": "read-out: PPB (converted)"}, "Albumin [3]": {"biological_target": "T1, Albumin", "assay": "Protein binding in human serum albumin after 4.5 hrs by LC-MS based rapid equilibrium dialysis method", "format": "ADME", "conditions": "read-out: PB (converted)"}, "Albumin [4]": {"biological_target": "T1, Albumin", "assay": "Protein binding in immobilized human serum albumin after 15 mins by HPLC analysis", "format": "ADME", "conditions": "read-out: PB (converted)"}},
  "data": [
    {"smiles": "CC(C)NCC(O)COc1cccc2ccccc12", "note": "(stereo not drawn) [PROPRANOLOL]", "values": [
      {"measurement": "fraction unbound", "setting": "Albumin [1]", "result": 0.375}
    ]},
    {"smiles": "O=C1CN=C(c2ccccc2)c2cc([N+](=O)[O-])ccc2N1", "note": "[NITRAZEPAM]", "values": [
      {"measurement": "fraction unbound", "setting": "Albumin [1]", "result": 0.233}
    ]},
    {"smiles": "CN(C)CCCN1c2ccccc2CCc2ccccc21", "note": "[IMIPRAMINE]", "values": [
      {"measurement": "fraction unbound", "setting": "[2]", "result": "0.074 to 0.099"},
      {"measurement": "fraction unbound", "setting": "Albumin [1]", "result": 0.151}
    ]},
    {"smiles": "Cc1cnc(NC(=O)C2=C(O)c3ccccc3S(=O)(=O)N2C)s1", "note": "[MELOXICAM]", "values": [
      {"measurement": "fraction unbound at 4.5 h", "setting": "Albumin [3]", "result": 0.033},
      {"measurement": "fraction unbound", "setting": "Albumin [1]", "result": 0.001}
    ]},
    {"smiles": "CC1=C(CC(=O)O)c2cc(F)ccc2/C1=C\\c1ccc([S+](C)[O-])cc1", "note": "(stereo not drawn)", "values": [
      {"measurement": "fraction unbound", "setting": "[2]", "result": "0.06 to 0.065"}
    ]},
    {"smiles": "CCCCC1(C)C(=O)N(c2ccccc2)N(c2ccccc2)C1=O", "values": [
      {"measurement": "fraction unbound at 4.5 h", "setting": "Albumin [3]", "result": 0.359},
      {"measurement": "fraction unbound", "setting": "Albumin [1]", "result": 0.15}
    ]},
    {"smiles": "CNC(=O)Oc1ccc2c(c1)[C@]1(C)CCN(C)[C@@H]1N2C", "note": "[PHYSOSTIGMINE]", "values": [
      {"measurement": "fraction unbound at 4.5 h", "setting": "Albumin [3]", "result": 0.903},
      {"measurement": "fraction unbound", "setting": "Albumin [1]", "result": 0.8}
    ]},
    {"smiles": "CO/N=C(\\C(=O)N[C@@H]1C(=O)N2C(C(=O)O)=C(COC(N)=O)CS[C@H]12)c1ccco1", "note": "[CEFUROXIME]", "values": [
      {"measurement": "fraction unbound", "setting": "[2]", "result": "0.67 to 0.685"}
    ]},
    {"smiles": "CN1C(C(=O)Nc2ccccn2)=C(O)c2ccccc2S1(=O)=O", "note": "[PIROXICAM]", "values": [
      {"measurement": "fraction unbound", "setting": "[2]", "result": 0.01}
    ]},
    {"smiles": "CCCCc1c(OC)n(-c2ccccc2)n(-c2ccccc2)c1=O", "values": [
      {"measurement": "fraction unbound at 4.5 h", "setting": "Albumin [3]", "result": 0.071},
      {"measurement": "fraction unbound", "setting": "Albumin [1]", "result": 0.071}
    ]},
    {"smiles": "NC(N)=Nc1nc(CSCCC(N)=NS(N)(=O)=O)cs1", "note": "[FAMOTIDINE]", "values": [
      {"measurement": "fraction unbound at 4.5 h", "setting": "Albumin [3]", "result": 0.956},
      {"measurement": "fraction unbound", "setting": "[2]", "result": 0.8},
      {"measurement": "fraction unbound", "setting": "Albumin [1]", "result": 0.749}
    ]},
    {"smiles": "CCOC(=O)c1cc(-c2ccc(F)cc2F)ccc1O", "values": [
      {"measurement": "fraction unbound", "setting": "Albumin [1]", "result": 0.025}
    ]},
    {"smiles": "CN1C(C(=O)Nc2ccccn2)=C(O)c2sccc2S1(=O)=O", "note": "[TENOXICAM]", "values": [
      {"measurement": "fraction unbound at 4.5 h", "setting": "Albumin [3]", "result": 0.032}
    ]},
    {"smiles": "COc1cc(Cc2cnc(N)nc2N)cc(OC)c1OC", "note": "[TRIMETHOPRIM]", "values": [
      {"measurement": "fraction unbound at 4.5 h", "setting": "Albumin [3]", "result": 0.969},
      {"measurement": "fraction unbound", "setting": "[2]", "result": "0.585 to 0.625"},
      {"measurement": "fraction unbound", "setting": "Albumin [1]", "result": 0.627}
    ]},
    {"smiles": "CCN(CC)CCOC(=O)c1ccc(N)cc1", "note": "[PROCAINE]", "values": [
      {"measurement": "fraction unbound", "setting": "[2]", "result": 0.94},
      {"measurement": "fraction unbound at 0.25 h", "setting": "Albumin [4]", "result": 0.64}
    ]},
    {"smiles": "NNC(=O)c1ccncc1", "note": "[ISONIAZID]", "values": [
      {"measurement": "fraction unbound", "setting": "[2]", "result": 1},
      {"measurement": "fraction unbound", "setting": "Albumin [1]", "result": 0.891},
      {"measurement": "fraction unbound at 0.25 h", "setting": "Albumin [4]", "result": 0.932}
    ]},
    {"smiles": "COC1=C(C(=O)Nc2ncc(C)s2)N(C)S(=O)(=O)c2ccccc21", "values": [
      {"measurement": "fraction unbound at 4.5 h", "setting": "Albumin [3]", "result": 0.341},
      {"measurement": "fraction unbound", "setting": "Albumin [1]", "result": 0.158}
    ]},
    {"smiles": "Cc1ncc([N+](=O)[O-])n1CCO", "note": "[METRONIDAZOLE]", "values": [
      {"measurement": "fraction unbound", "setting": "[2]", "result": "0.89 to 0.9"}
    ]},
    {"smiles": "CN1C(C(=O)Nc2ccccn2)=C(O)c2sc(Cl)cc2S1(=O)=O", "note": "[LORNOXICAM]", "values": [
      {"measurement": "fraction unbound at 4.5 h", "setting": "Albumin [3]", "result": 0.02}
    ]},
    {"smiles": "CCN(CC)CCC[C@H](C)Nc1ccnc2cc(Cl)ccc12", "values": [
      {"measurement": "fraction unbound", "setting": "Albumin [1]", "result": 0.495}
    ]}
  ]
}
